≈ marks a conversion by molar mass, not a printed value. Non-standard residues stand in square brackets, D forms with d. Residues, ends and D or L forms follow the SMILES beside them. Aib = CC(C)(N)C(=O)O
What was measured:
A. baumannii = details: 1× MIC, PBS, 2 h
A. baumannii YQ4 [1] = test: transmission electron microscopy (TEM) of treated cells; details: 1× MIC (16 μg/ml), PBS, 37°C, 30 min
MDR Serratia mucosa YQ15 = details: microdilution method in the corresponding broth
[2] = test system: MDR Streptococcus pneumoniae 10–58; details: microdilution method in the corresponding broth
[3] = test system: A. baumannii YQ4 preformed biofilm; test: biofilm eradication assay, crystal violet; assay type: cell-based, Acinetobacter baumannii; details: 48 h preformed biofilm, 24 h treatment
Protocol: Biofilm eradication assay was performed as described previously (Mwangi et al., [2019]). A. baumannii YQ4 culture of log phase was diluted in fresh LB broth to OD600 0.01 and dispensed to a 96-well PVC plate with 200 μl per well. Plates were incubated at 37°C for 48 h and washed with PBS three times. Serial dilutions of COG1410 (0.5–128 μg/ml) were prepared using the same media, and 200 μl were dispensed into each well. Each concentration was determined in eight wells. LB without COG1410 was used as untreated control. After incubation for another 24 h, the remaining biofilm was quantified as described above. The experiments were performed in triplicate.

[4] = test system: Mycobacterium tuberculosis H37Rv; details: microdilution method, 7H9 broth
[5] = test system: MDR Pseudomonas aeruginosa 14–61; details: microdilution method in the corresponding broth
[6] = test system: Porphyromonas gingivalis ATCC33277
[7] = test system: PDR Acinetobacter baumannii YQ4; test: microbe, parasite or virus in culture; assay type: cell-based
Protocol: (§1) Strain stocks were maintained at −80°C in 10% glycerol. Bacteria were streaked on fresh plates before each experiment. Most of them were cultured in LB broth containing 10 g/L NaCl at 37°C, except for Mycobacteria in 7H9 broth and Enterococcus in BHI broth. Porphyromonas gingivalis was cultured in BHI broth supplemented with 1 μg/ml vitamin k1, 5 μg/ml hemin, and 5 mg/ml L-cysteine hydrochloride at 37°C in the anaerobic chamber. The minimal inhibitory concentrations (MICs) of antimicrobials were determined using the microdilution method in the corresponding broth.
The pandrug-resistant A. baumannii YQ4 was collected from the clinical laboratory of the second hospital in Nanjing. The complete genome was sequenced by Nanopore, and the data were deposited in the GenBank with accession number CP053033.

[8] = test system: MDR Enterobacter cloacae 7–86; details: microdilution method in the corresponding broth
[9] = test system: pandrug-resistant (PDR) Acinetobacter baumannii YQ4
A. baumannii YQ4 [10] = test: antibacterial activity (LC99.9) in PBS or 50% pooled human plasma; assay type: cell-based, Acinetobacter baumannii; details: 2 h, 37°C
Protocol: The antibacterial activity of COG1410 in plasma was performed as described previously (De Breij et al., [2018]). Briefly, the log-phase culture of A. baumannii YQ4 was exposed to different concentrations of COG1410 in PBS or PBS supplemented with 50% (v/v) pooled human plasma. After incubation with shaking at 200 rpm at 37°C for 2 h, the CFU was counted on LB agar. LC99.9 indicates the lowest peptide concentration that kills ≥99.9% of bacteria. The experiments were conducted independently in triplicate.

[11] = test system: PDR Klebsiella pneumoniae 84; details: microdilution method in the corresponding broth
[12] = test system: methicillin-resistant Staphylococcus aureus 14–55; details: microdilution method in the corresponding broth
A. baumannii YQ4 biofilm = test: static biofilm inhibition, crystal violet; assay type: cell-based, Acinetobacter baumannii; details: 48 h
Protocol: Static biofilm inhibition was performed as described previously (Gaddy and Actis, [2009]). Briefly, the log-phase culture of A. baumannii YQ4 was prepared as described above. About 200 μl of culture was seeded in each cell of the 96-well PVC plate with OD600 of 0.01 (ca. 1 × 10^6 CFU/ml), which was exposed to different COG1410 solutions with the final concentrations ranging from 0.5 to 128 μg/ml. Each concentration was determined in eight wells. After incubation at 37°C for 48 h, the planktonic bacteria were removed by washing three times with sterilized water, followed by fixing in methanol for 15 min and staining with 0.1% crystal violet (CV) for 15 min. Excess CV was washed off, and the bound CV was eluted from the biofilm into 150 μl of 95% ethanol and quantitated spectrophotometrically at 600 nm using a Biotek Synergy H1 plate reader. The experiments were performed in triplicate.

[13] = test system: clinically collected A. baumannii strains
Protocol: as §1
TAble S2. Determination of bactericidal effect of COG1410 against clinically collected A. baumannii strains. MIC was measured in LB broth by microdilution method.

[14] = test system: MDR Mycobacterium tuberculosis 6–45; details: microdilution method, 7H9 broth
[15] = test system: A. baumannii ATCC19606 and two LPS-modified strains, pmrA^P102R and pmrA^P102RmiaA^I221V; test: MIC against LPS-modified strains; assay type: cell-based, Acinetobacter baumannii; details: MIC in LB broth, wild type versus mutants
Protocol: The growth curve was measured in duplicate, with eight wells for each treatment in a 96-well plate each time. […] Experiments were conducted in triplicate. Data indicated mean ± SD values.

SMILES: CC(=O)N[C@@H](C)C(=O)N[C@@H](CO)C(=O)NC(C)(C)C(=O)N[C@@H](CC(C)C)C(=O)N[C@@H](CCCNC(=N)N)C(=O)N[C@@H](CCCCN)C(=O)N[C@@H](CC(C)C)C(=O)NC(C)(C)C(=O)N[C@@H](CCCCN)C(=O)N[C@@H](CCCNC(=N)N)C(=O)N[C@@H](CC(C)C)C(=O)N[C@@H](CC(C)C)C(N)=O [COG1410, acetyl-AS-Aib-LRKL-Aib-KRLL-amide] (Ac-AS[Aib]LRKL[Aib]KRLL-NH2)
- A. baumannii population killed, in words (A. baumannii): almost complete elimination
- cell membrane integrity by TEM (A. baumannii YQ4 [1]): wrinkled and smaller compared with untreated cells
- MIC (MDR Serratia mucosa YQ15): >256 µg/mL
- MIC [2]: >256 µg/mL
- mature biofilm dispersed ([3]; 1× MIC): approximately 46%
- biofilm eradicated ([3]; 4 × MIC): more than 88%
- MIC [4]: 16 µg/mL (≈ 11.4 µM)
- MIC [5]: >256 µg/mL
- MIC [6]: 32 µg/mL (≈ 22.7 µM)
- MIC ([7]; PDR YQ4): 11.3 µM
- MIC ([7]; microdilution method, LB broth): 16 µg/mL
- MIC [8]: 64 µg/mL (≈ 45.4 µM)
- minimal bactericidal concentration (MBC) [9]: 16 µg/mL (≈ 11.4 µM)
- LC99.9 (A. baumannii YQ4 [10]; PBS with 50% (v/v) pooled human plasma): 8 µg/mL
- LC99.9 (A. baumannii YQ4 [10]; PBS, lowest concentration that kills ≥99.9% of bacteria): 2 µg/mL
- MIC [11]: >256 µg/mL
- MIC [12]: >256 µg/mL
- biofilm formation, in words (A. baumannii YQ4 biofilm; 1/2 MIC, crystal violet): significantly reduced biofilm formation
- reduction of biofilm mass (A. baumannii YQ4 biofilm; 1× MIC, 37°C, crystal violet OD600, versus untreated control): 55%
- MICs over 107 clinically collected A. baumannii strains ([13]; clinically collected strains): 16 to 32 µg/mL
- MIC ([13]; strain Ab3-1 (MDR-Ab, hydrothorax and ascite), LB broth): 32 µg/mL (≈ 22.7 µM)
- MIC [14]: 16 µg/mL (≈ 11.4 µM)
- effect of lipid A modification of LPS on antimicrobial efficacy [15]: did not change the antimicrobial efficacy
- MIC (Bacillus subtilis 168): 1 µg/mL (≈ 0.71 µM)

Reference: publication PMC9445589, “Apolipoprotein E mimetic peptide COG1410 combats pandrug-resistant Acinetobacter baumannii” (Frontiers in Microbiology, 2022)
